# Patent US9169224B2, “Piperazinyl and piperidinyl ureas as modulators of fatty acid amide hydrolase” (Janssen Pharmaceutica NV, priority 2004, dated 2015)
# How the values were obtained:
# rats [1] = details: WO 04/033652; cited from earlier work
# FAAH [2] = target: T1, FAAH (Homo sapiens (Human), UniProt O00519); details: WO 04/033652; cited from earlier work
# rat FAAH = rat FAAH (Rattus norvegicus (Rat), UniProt P97612); test: Assay Method 3: FAAH assay, cells transfected with rat FAAH; type: biochemical; details: T84 or rat FAAH-transfected SK-N-MC cell homogenate, 3H-AEA tracer 80 nM, 1 h at rt
# Method: Assay Method 3 A. Transfection of Cells with Rat FAAH
# (§1) A 10-cm tissue culture dish with a confluent monolayer of SK-N-MC cells was split 2 days (d) prior to transfection. Using sterile technique, the media was removed and the cells were detached from the dish by the addition of trypsin. One fifth of the cells were then placed onto a new 10-cm dish. Cells were grown in a 37° C. incubator with 5% CO2 in Minimal Essential Media Eagle with 10% Fetal Bovine Serum. After 2 d, cells were approximately 80% confluent. These cells were removed from the dish with trypsin and pelleted in a clinical centrifuge. The pellet was re-suspended in 400 μL complete media and transferred to an electroporation cuvette with a 0.4 cm gap between the electrodes. Supercoiled rat FAAH cDNA (1 μg) was added to the cells and mixed. The voltage for the electroporation was set at 0.25 kV, and the capacitance was set at 960 μF. After electroporation, the cells were diluted into complete media (10 mL) and plated onto four 10-cm dishes. Because of the variability in the efficiency of electroporation, four different concentrations of cells were plated. The ratios used were 1:20, 1:10, and 1:5, with the remainder of the cells being added to the fourth dish. The cells were allowed to recover for 24 h before adding the selection media (complete media with 600 μg/mL G418). After 10 d, dishes were analyzed for surviving colonies of cells. Dishes with well-isolated colonies were used. Cells from individual colonies were isolated and tested.
# (§2) T84 frozen cell pellets or transfected SK-N-MC cells (contents of 1×15 cm culture dishes) were homogenized in 50 mL of FAAH assay buffer (125 mM Tris, 1 mM EDTA, 0.2% Glycerol, 0.02% Triton X-100, 0.4 mM Hepes, pH 9). The assay mixture consisted of 50 μL of the cell homogenate, 10 μL of the test compound, and 40 μL of anandamide [1-^3H-ethanolamine] (^3H-AEA, Perkin-Elmer, 10.3 Ci/mmol), which was added last, for a final tracer concentration of 80 nM. The reaction mixture was incubated at rt for 1 h. During the incubation, 96-well Multiscreen filter plates (catalog number MAFCNOB50; Millipore, Bedford, Mass., USA) were loaded with 25 μL of activated charcoal (Multiscreen column loader, catalog number MACL09625, Millipore) and washed once with 100 μL of MeOH. Also during the incubation, 96-well DYNEX MicroLite plates (catalog number NL510410) were loaded with 100 μL of MicroScint40 (catalog number 6013641, Packard Bioscience, Meriden, Conn., USA). After the 1 h incubation, 60 μL of the reaction mixture were transferred to the charcoal plates, which were then assembled on top of the DYNEX plates using Centrifuge Alignment Frames (catalog number MACF09604, Millipore). The unbound labeled ethanolamine was centrifuged through to the bottom plate (5 min at 2000 rpm), which was preloaded with the scintillant, as described above. The plates were sealed and left at rt for 1 h before counting on a Hewlett Packard TopCount.
# FAAH [3] = target: T1, FAAH; test: Assay Method 1: FAAH assay, T84 cell homogenate, 3H-anandamide hydrolysis; type: biochemical; details: 3H-AEA tracer 200 nM, 1 h at rt
# Method in brief: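 Homogenate of human T84 cells in pH 9 Tris/EDTA buffer with 0.02% Triton X-100 was incubated with compound and 200 nM final 3H-anandamide for 1 h at rt. Released [3H]ethanolamine was separated from substrate through activated charcoal by centrifugation and quantified by scintillation counting.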
# FAAH [4] = target: T1, FAAH; test: Assay Method 2: FAAH assay, cells transfected with human FAAH; type: biochemical; details: T84 or human FAAH-transfected SK-N-MC cell homogenate, 3H-AEA tracer 80 nM, 1 h at rt
# Method: Assay Method 2 A. Transfection of Cells with Human FAAH
# as §1, with “Supercoiled human” for “Supercoiled rat”, “([…])” for “(1 μg)”
# as §2, with “[…]” for “40 μL”
# rats [5] = details: Kathuria 2003; cited from earlier work
# rats [6] = details: rat, Kathuria 2003; cited from earlier work
# CREAE mice = details: Baker 2001; cited from earlier work
# T1 sequence (O00519 whole entry): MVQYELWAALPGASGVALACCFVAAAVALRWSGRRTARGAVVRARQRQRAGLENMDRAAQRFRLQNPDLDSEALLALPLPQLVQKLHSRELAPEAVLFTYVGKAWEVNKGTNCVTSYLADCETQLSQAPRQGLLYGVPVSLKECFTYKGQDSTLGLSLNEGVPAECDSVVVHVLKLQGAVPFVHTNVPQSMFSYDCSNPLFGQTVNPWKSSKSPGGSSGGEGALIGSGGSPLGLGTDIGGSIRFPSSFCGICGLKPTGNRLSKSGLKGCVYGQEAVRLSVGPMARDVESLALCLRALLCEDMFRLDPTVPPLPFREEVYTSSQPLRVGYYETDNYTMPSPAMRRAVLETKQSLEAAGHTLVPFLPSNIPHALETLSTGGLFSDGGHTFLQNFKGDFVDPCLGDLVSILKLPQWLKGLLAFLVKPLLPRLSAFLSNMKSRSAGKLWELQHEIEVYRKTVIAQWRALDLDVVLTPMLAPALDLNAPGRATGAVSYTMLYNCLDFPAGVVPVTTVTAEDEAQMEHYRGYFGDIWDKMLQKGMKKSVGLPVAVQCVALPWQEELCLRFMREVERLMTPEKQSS
# Sequence of rat FAAH (P97612 whole entry): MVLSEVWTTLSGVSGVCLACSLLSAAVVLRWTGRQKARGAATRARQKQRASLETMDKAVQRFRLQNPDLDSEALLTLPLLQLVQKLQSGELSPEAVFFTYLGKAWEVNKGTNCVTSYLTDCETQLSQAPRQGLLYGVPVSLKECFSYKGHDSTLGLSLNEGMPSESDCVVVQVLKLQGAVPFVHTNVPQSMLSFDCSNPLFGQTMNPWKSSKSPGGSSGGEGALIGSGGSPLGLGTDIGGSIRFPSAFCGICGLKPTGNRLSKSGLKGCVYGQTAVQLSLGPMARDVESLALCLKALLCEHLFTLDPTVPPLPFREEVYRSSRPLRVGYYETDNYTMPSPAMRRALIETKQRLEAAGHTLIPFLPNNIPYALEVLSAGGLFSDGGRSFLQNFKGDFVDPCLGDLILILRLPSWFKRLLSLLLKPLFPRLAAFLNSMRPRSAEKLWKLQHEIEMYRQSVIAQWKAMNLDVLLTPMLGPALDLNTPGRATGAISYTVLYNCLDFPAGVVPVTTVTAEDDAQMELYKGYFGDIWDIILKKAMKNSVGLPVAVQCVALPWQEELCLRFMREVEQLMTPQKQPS
SMILES,IC50 (rat FAAH),IC50 (FAAH [3]),IC50 (FAAH [4]),further results
O=C(CCCCCCc1ccccc1)c1ncc(-c2ccccn2)o1 [OL-135],–,–,–,analgesic activity (rats [1]): analgesic activity; inhibition of FAAH (FAAH [2]): potent inhibitor of FAAH
"O=C(Nc1ccccc1)N1CCN(Cc2ccc3ccccc3c2O)CC1 [Example 59, 4-(1-Hydroxy-naphthalen-2-ylmethyl)-piperazine-1-carboxylic acid phenylamide]",50 nM,21 nM,16 nM,–
NC(=O)c1cccc(-c2cccc(OC(=O)NC3CCCCC3)c2)c1 [URB-597],–,–,–,efficacy in anxiety model (rats [5]): efficacy; analgesic efficacy (rats [6]): analgesic efficacy
"O=C(Nc1ccccc1)N1CCN(Cc2ccc(Br)c(Br)c2)CC1 [Example 21, 4-(3,4-Dibromo-benzyl)-piperazine-1-carboxylic acid phenylamide]",180 nM,31 nM,19 nM,–
"O=C(Nc1ccccc1)N1CCN(Cc2cc(Br)ccc2O)CC1 [Example 34, 4-(5-Bromo-2-hydroxy-benzyl)-piperazine-1-carboxylic acid phenylamide]",410 nM,290 nM,330 nM,–
"O=C(Nc1ccccc1)N1CCN(Cc2ccc3c(c2)OC(F)(F)O3)CC1 [Example 52, 4-(2,2-Difluoro-benzo[1,3]dioxol-5-ylmethyl)-piperazine-1-carboxylic acid phenylamide]",290 nM,87 nM,100 nM,–
"O=C(Nc1ccc(F)cc1)N1CCN(Cc2cnc3ccccc3c2)CC1 [Example 98, 4-Quinolin-3-ylmethyl-piperazine-1-carboxylic acid (4-fluoro-phenyl)-amide]",6500 nM,130 nM,220 nM,–
"CC(C)c1ccc(CN2CCN(C(=O)Nc3ccccc3)CC2)cc1 [Example 32, 4-(4-Isopropyl-benzyl)-piperazine-1-carboxylic acid phenylamide]",10000 nM,220 nM,380 nM,–
"O=C(Nc1ccccc1)N1CCN(Cc2ccc3ccccc3c2)CC1 [Example 18, 4-Naphthalen-2-ylmethyl-piperazine-1-carboxylic acid phenylamide]",265 nM,17 nM,23 nM,–
CCCCCCCCCCCCCCCCS(=O)(=O)F [AM374],–,–,–,spasticity (CREAE mice): significantly reduce spasticity
